# Assay results reported in patent US9353140B2, “BQC-G, a tumor-selective anti-cancer prodrug” (priority 2009, dated 2016).
# Where “and” joins values, the source holds several entries; their conditions need not be identical. Equal entries are not always repeated. Where two headings read alike, the source gives them in different places.
# What was measured:
# [1] = biological target: E. coli β-glucuronidase (Escherichia coli, UniProt P05804); conditions: for Kcat / Km: enzymatic hydrolysis by E. coli β-glucuronidase
# Chain of E. coli β-glucuronidase (P05804 whole entry): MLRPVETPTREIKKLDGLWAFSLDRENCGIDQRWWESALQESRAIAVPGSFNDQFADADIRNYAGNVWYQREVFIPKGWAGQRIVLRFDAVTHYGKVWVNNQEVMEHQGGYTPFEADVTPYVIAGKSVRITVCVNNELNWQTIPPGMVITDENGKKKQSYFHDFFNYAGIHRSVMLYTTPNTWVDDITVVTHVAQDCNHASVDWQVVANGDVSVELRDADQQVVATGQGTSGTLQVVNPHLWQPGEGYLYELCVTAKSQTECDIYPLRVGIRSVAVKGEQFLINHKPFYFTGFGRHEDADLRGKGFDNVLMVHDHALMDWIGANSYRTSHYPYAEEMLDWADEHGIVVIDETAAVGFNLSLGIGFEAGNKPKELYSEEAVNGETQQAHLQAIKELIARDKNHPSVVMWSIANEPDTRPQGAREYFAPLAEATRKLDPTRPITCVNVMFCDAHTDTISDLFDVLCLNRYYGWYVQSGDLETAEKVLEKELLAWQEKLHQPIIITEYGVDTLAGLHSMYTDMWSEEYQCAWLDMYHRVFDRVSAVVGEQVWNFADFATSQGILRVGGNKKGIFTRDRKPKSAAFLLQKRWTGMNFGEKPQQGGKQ
# [2] = test system: CL1-5 human lung adenocarcinoma cells; assay: In vitro cytotoxicity (3H-thymidine incorporation), CL1-5; format: cell-based
# Method: CL1-5 cells were exposed to the indicated concentrations of drugs with or without the addition of human serum albumin to 40 mg/ml. […] Bars show the SD.
# (§1) The cancer cell lines were from ATCC except for CL1-5 human lung adenocarcinoma which was generous gift from Dr. PC Yang and EJ human bladder carcinoma cells. See Yang, P. C. et al., Characterization of the mucin differentiation in human lung adenocarcinoma cell lines. American journal of respiratory cell and molecular biology 1992, 7, 161-171; Marshall, C. J. et al., Markers of neoplastic transformation in epithelial cell lines derived from human carcinomas. J Natl Cancer Inst 1977, 58, 1743-51.
# (§2) 5000-10000 cells/well in 96 well plate were exposed to graded concentration of the compounds for 48 h in the absence or presence of 40 mg/ml HSA. E. coli β-glucuronidase (1 μg/well) was added with BCC-G in some experiments. The cells were washed twice with PBS and incubated in fresh medium for 24 h before the cells were pulsed with 1 μC/well of ^3H-thimidine for 16 h. Cellular radioactivity in harvested cells was counted on a Topcount scintillation counter and IC50 values were calculated by fitting the data to a sigmoidal dose/response equation.
# [3] = test system: LS174T; assay: In vitro cytotoxicity (3H-thymidine incorporation), LS174T; format: cell-based
# Method: as §2
# [4] = test system: CaSki; assay: In vitro cytotoxicity (3H-thymidine incorporation), CaSki; format: cell-based
# Method: as §2
# [5] = test system: EJ human bladder carcinoma cells; assay: In vitro cytotoxicity (3H-thymidine incorporation), EJ; format: cell-based
# From the text: as §1, §2
# [6] = Water solubility; format: physicochemical
# Method: […] Mixtures were centrifuged for 40 min at 20,000 g at room temperature. A sample from the water layer was analyzed by HPLC and quantified using standard curves generated with pure BQC and BQC-G.
# [7] = test system: other cancer cell lines; assay: In vitro cytotoxicity, other cancer cell lines; format: cell-based
# Method: as §2
# [8] = Octanol/water partition coefficient; format: physicochemical; conditions: for Po/w (octanol/water partition coefficient): Buffer pH 4.5
# Method: Octanol/Water Partition Coefficient
# […] One μg of either BQC or BQC-G was added to a mixture of 250 μl octanol and 250 μl of one of the three water based pre-equilibrated solvents. After mixing for 24 h at RT, the samples were centrifuged 20 min at 10,000×g. Samples of the octanol and water layers were analyzed by HPLC.
# [9] = Stability in blood (human plasma/serum, 37° C., 24 h); format: in vitro ADME; conditions: 24 h at 37° C.
# Method: Normal human plasma was spiked with BQC-G to 5 μM. The mixture was incubated 24 h at 37° C. during which time samples were periodically removed and analyzed by SPE-HPLC.
# [10] = biological target: T1, human β-glucuronidase (Homo sapiens, UniProt P08236); assay: Hydrolysis of BQC-G by human β-glucuronidase; format: biochemical; conditions: low concentrations of human β-glucuronidase
# T1 sequence (P08236 23-651): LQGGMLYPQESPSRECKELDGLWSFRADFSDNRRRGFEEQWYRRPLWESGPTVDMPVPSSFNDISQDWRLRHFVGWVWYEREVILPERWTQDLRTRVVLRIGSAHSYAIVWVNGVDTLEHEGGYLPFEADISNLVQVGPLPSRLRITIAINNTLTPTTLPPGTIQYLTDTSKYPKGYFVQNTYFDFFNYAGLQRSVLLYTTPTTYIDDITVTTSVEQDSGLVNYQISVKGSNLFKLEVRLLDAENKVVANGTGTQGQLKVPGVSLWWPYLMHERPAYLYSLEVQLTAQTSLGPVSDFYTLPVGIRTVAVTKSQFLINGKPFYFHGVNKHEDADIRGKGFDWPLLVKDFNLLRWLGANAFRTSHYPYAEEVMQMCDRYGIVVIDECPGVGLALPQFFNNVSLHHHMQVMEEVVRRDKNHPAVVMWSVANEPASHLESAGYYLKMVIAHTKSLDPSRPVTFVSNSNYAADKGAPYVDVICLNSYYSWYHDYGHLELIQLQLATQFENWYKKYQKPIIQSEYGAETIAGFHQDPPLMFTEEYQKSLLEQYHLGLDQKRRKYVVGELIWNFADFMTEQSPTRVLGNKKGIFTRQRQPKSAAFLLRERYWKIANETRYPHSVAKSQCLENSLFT
# From the text: Hydrolysis of BQC-G by β-glucuronidase
# [11] = Homo sapiens, CL1-5, CL1-5, +HSA (40 mg/ml)
# [12] = Homo sapiens, CL1-5, CL1-5, −HSA
compound,measurement,setting,value
"Cc1cc(=O)oc2cc(O[C@@H]3O[C@H](C(=O)O)[C@@H](O)[C@H](O)[C@H]3O)ccc12 [4-MUG, 4-methylumbelliferyl-β-D-glucuronide]",Kcat,[1],22.2 s⁻¹
same,Km,[1],80.2 ± 12.4 µM
"CC[C@@]1(O)C(=O)OCc2c1cc1n(c2=O)Cc2cc3c(N)cccc3nc2-1 [9AC, 9-amino-camptothecin]",Cytotoxicity Ratio (IC50 in the presence of HSA to IC50 without HSA),[2],140
same,effect of HSA on cytotoxicity,[2],profound decrease in cytotoxicity
same,IC50,"[2]; CL1-5, +HSA (40 mg/ml)",1370 ± 70 nM
same,IC50,"[2]; CL1-5, −HSA",9.8 ± 0.3 nM
"CC[C@@]1(O)C(=O)OCc2c1cc1n(c2=O)Cc2cc3c(NC(=O)OCc4ccc(O[C@@H]5O[C@H](C(=O)O)[C@@H](O)[C@H](O)[C@H]5O)cc4)cccc3nc2-1 [9ACG, 9-amino-camptothecin-glucuronide]",Cytotoxicity Ratio (IC50 in the presence of HSA to IC50 without HSA),[2],>15
same,IC50,"[2]; CL1-5, +HSA (40 mg/ml)",> 10000 nM
same,IC50,"[2]; CL1-5, −HSA",650 ± 40 nM
same,Kcat,[1],8.6 s⁻¹
same,Km,[1],30 µM
"CC[C@@]1(O)C(=O)OCc2c1cc1n(c2=O)Cc2c-1nc1ccc(O)c3c1c2CCC3 [BQC, 5,6-dihydro-4H-benzo[de]quinoline-camptothecin]",IC50,[3],1.31 ± 0.03 nM
same,IC50,[4],1.25 ± 0.05 nM
same,Cytotoxicity Ratio (IC50 in the presence of HSA to IC50 without HSA),[2]; CL1-5,9.5
same,IC50,"[2]; CL1-5, +HSA (40 mg/ml)",13 nM
same,IC50,"[2]; CL1-5, −HSA",1.4 nM and 1.37 nM
same,IC50,[5],1.78 ± 0.08 nM
same,Solubility,[6]; Buffer pH 4.5,0.120 µg/mL
same,Solubility,[6]; Buffer pH 7.0,0.200 µg/mL
same,solubility in water-based buffers,[6]; pH 4.5,0.125 µg/mL
same,solubility in water-based buffers,[6]; pH 7.0,0.2 µg/mL
same,Solubility,[6]; water,0.200 µg/mL
same,IC50,[7],1 to 2 nM
same,Po/w (octanol/water partition coefficient),[8],1.67
same,Po/w,[8]; Buffer pH 7.4,1.46
same,Po/w,[8]; water,1.98
CC[C@@]1(O)C(=O)OCc2c1cc1n(c2=O)Cc2c-1nc1ccc(OCc3ccc(O[C@@H]4O[C@H](C(=O)O)[C@@H](O)[C@H](O)[C@H]4O)c([N+](=O)[O-])c3)c3c1c2CCC3 [BQC-G],IC50,[3],24.6 ± 2.8 nM
same,stability in human serum,[9],only trace amounts of BQC detected
same,IC50,[4],31.2 ± 0.5 nM
same,Cytotoxicity Ratio (IC50 in the presence of HSA to IC50 without HSA),[2]; CL1-5,18.4
same,IC50,"[2]; CL1-5, +HSA (40 mg/ml)",1080 nM
same,IC50,"[2]; CL1-5, in the presence of HSA, hydrolyzed by β-glucuronidase",13 nM
same,IC50,"[2]; CL1-5, without HSA, β-glucuronidase added",1.3 nM
same,IC50,"[2]; CL1-5, −HSA",58 nM and 58.7 nM
same,Kcat,[1],45.1 s⁻¹
same,Km,[1],4.6 µM
same,hydrolysis to the parental aglycone BQC,[1]; low concentrations of E. coli β-glucuronidase,completely hydrolyzed
same,IC50,[5],44.8 ± 0.7 nM
same,Solubility,[6]; Buffer pH 7.0,775 µg/mL
same,solubility in water based buffers,[6]; pH 7.0,775 µg/mL
same,solubility in water based buffers relative to BQC,[6]; versus BQC,about 4000 fold
same,hydrolysis to the parental aglycone BQC,[10],completely hydrolyzed
same,Po/w (octanol/water partition coefficient),[8],−0.44
same,Po/w,[8]; Buffer pH 7.4,−1.01
same,octanol/water partition coefficient,[8]; pH not stated (discussion),about −1
same,Po/w,[8]; water,−0.44
"CC[C@@]1(O)C(=O)OCc2c1cc1n(c2=O)Cc2cc3ccccc3nc2-1 [CPT, camptothecin]",IC50,[3]; Homo sapiens,9.7 ± 0.8 nM
same,IC50,"[4]; Homo sapiens, Ca-Ski",20 ± 2.1 nM
same,Cytotoxicity Ratio (IC50 in the presence of HSA to IC50 without HSA),[2]; CL1-5,>146
same,effect of HSA on cytotoxicity,"[2]; CL1-5, in the presence of HSA",drastically reduced
same,IC50,[2]; [11],> 3000 nM
same,IC50,[2]; [12],20.5 ± 1.3 nM
same,IC50,[5]; Homo sapiens,21 ± 3.9 nM
"O=C(O)[C@H]1O[C@@H](Oc2ccc([N+](=O)[O-])cc2)[C@H](O)[C@@H](O)[C@@H]1O [PNPG, p-nitrophenol β-D-glucuronide]",Kcat,[1],173 s⁻¹
same,Km,[1],490 ± 84 µM
CCc1c2c(nc3ccc(O)cc13)-c1cc3c(c(=O)n1C2)COC(=O)[C@]3(O)CC [SN-38],Cytotoxicity Ratio (IC50 in the presence of HSA to IC50 without HSA),[2],9.1
same,IC50,"[2]; CL1-5, +HSA (40 mg/ml)",47.9 ± 1.9 nM
same,IC50,"[2]; CL1-5, −HSA",5.25 ± 0.08 nM
CC[C@@]1(O)C(=O)OCc2c1cc1n(c2=O)Cc2cc3c(CN(C)C)c(O)ccc3nc2-1 [topotecan],IC50,[2]; [11],28.4 ± 0.7 nM
same,IC50,[2]; [12],27.8 ± 0.3 nM
